The record followed here is patent publication US10463632B2, “Method for treating a neurovascular complication of diabetes mellitus” (KING SAUD UNIVERSITY, priority 2016, dated 2019).

Structures are written as SMILES.

Common to all, as to type: in vivo, Sprague Dawley rats
Assay [1] relates to Streptozotocin (STZ)-induced diabetic rats. Put plainly: Blood glucose concentration in STZ-induced diabetic rats with thymoquinone administration. As to conditions: TQ 2 mg/Kg intraperitoneally on alternate days. On the procedure:
(§1) Healthy Sprague Dawley rats (150-200 g) were used for the trials. Animals were issued from Central Animal House Facility of the College of Pharmacy, King Saud University and were kept in standard plastic animal cages in groups of 6 animals each with 12 hours light and dark cycle at 25±2° C. The rats were fed on standard rat chow and provided water ad libitum. The animals were acclimatized to laboratory conditions for a week prior to experiments. Diabetes was induced in overnight fasted rats by administration of Streptozotocin (STZ) at dose of 55 mg/kg intraperitoneally in citric acid buffer (pH 4.5). After one hour of STZ administration, the animals were allowed to feed ad libitum. The animals were kept under observation and fasting blood glucose levels were estimated […] 72 hours of STZ treatment. Animals showing blood glucose levels >350 mg/dl were considered as diabetic and were used for further trials. Diabetic rats were divided into two groups (10 rats per group) at random. Group I served as diabetic control. Group II were administered thymoquinone (2 mg/kg intraperitoneally) in alternate days for three weeks. Healthy rats were also kept as normal controls. Relevant biochemical parameters including serum creatinine, uric acid, alanine aminotransferase (ALT), aspartate aminotransferase (AST), alkaline phosphatase and bilirubin were assessed using colorimetric methods.

Assay [2] has the same test system. Briefly: Kidney and liver function tests (colorimetric serum biochemistry) in STZ-induced diabetic rats. Here is the method:
as §1

In assay [3] the test system is brain derived neurotrophic factor (BDNF). Put plainly: Western blot of retinal BDNF expression in diabetic rats. The conditions noted are these: diabetic rat retinas, thymoquinone 2 mg/kg i.p. alternate days, three weeks; FIG. 1A. Here is the method:
(§2) Healthy Sprague Dawley rats (150-200 g) were used for the trials. Animals were issued from Central Animal House Facility of the College of Pharmacy, King Saud University and were kept in standard plastic animal cages in groups of 6 animals each with 12 hours light and dark cycle at 25±2° C. The rats were fed on standard rat chow and provided water ad libitum. The animals were acclimatized to laboratory conditions for a week prior to experiments. Diabetes was induced in overnight fasted rats by administration of Streptozotocin (STZ) at dose of 55 mg/kg intraperitoneally in citric acid buffer (pH 4.5). After one hour of STZ administration, the animals were allowed to feed ad libitum. […] Relevant biochemical parameters including serum creatinine, uric acid, alanine aminotransferase (ALT), aspartate aminotransferase (AST), alkaline phosphatase and bilirubin were assessed using colorimetric methods. […] After incubations with secondary antibodies, membranes were washed four times with TBS-T (5 min each) and the immunoreactivity of bands was visualized on a high-performance chemiluminescence machine by using enhanced chemiluminescence plus Luminol and quantified by densitometric analysis using image processing and analysis in GeneTools. As a control, the blots were stripped and detected with a mouse monoclonal anti-β-actin antibody (1:2000). […]
(Immunoblotting shows a protein as a band on a membrane.)

For assay [4], the system named is tyrosine hydroxylase (TH). Briefly: Western blot of retinal tyrosine hydroxylase expression in diabetic rats. As to conditions: diabetic rat retinas, thymoquinone 2 mg/kg i.p. alternate days, three weeks; FIG. 1B. On the procedure: as §2
Assay [5] deals with nerve growth factor receptor (NGFR). Briefly: Western blot of retinal NGFR expression in diabetic rats. As to conditions: diabetic rat retinas, thymoquinone 2 mg/kg i.p. alternate days, three weeks; FIG. 1C. Here is the method: as §2
A further assay concerns cleaved caspase-3. Put plainly: Western blot of retinal cleaved caspase-3 in diabetic rats. The conditions noted are these: diabetic rat retinas, thymoquinone 2 mg/kg i.p. alternate days, three weeks; FIG. 1D. On the procedure:
as §2

The subject of assay [6] is reactive oxygen species (ROS). Put plainly: Reactive Oxygen Species (ROS) measurement in retinal tissue homogenates (DCF fluorescence). As to conditions: retinas of diabetic animals treated with thymoquinone; FIG. 2. On the procedure: as §1, with “Animals showing blood glucose levels >350 mg/dl were considered as diabetic and were used for further trials. Diabetic rats were divided into two groups (10 rats per group) at random. Group I served as diabetic control. Group II were administered thymoquinone (2 mg/kg intraperitoneally) in alternate days for three weeks. Healthy rats were also kept as normal controls.” left out
Reactive Oxygen Species (ROS) generation was measured in retinal tissue homogenates using a 2′,7′-dichlorofluorescein-diacetate (DCHFDA) as is known in the art. […] Fluorescence was measured using a SpectraMax Gemini-XPS every 15 min for 1 hour with excitation and emission wavelengths of 488 nm and 525 nm, respectively.

In assay [7] the test system is Blood-Retinal Barrier in STZ-Induced Diabetic Rats. Briefly: Measurement of Blood Retinal Barrier (BRB) breakdown with FITC-conjugated dextran. The conditions noted are these: thymoquinone 2 mg/kg on alternate days, compared with diabetic retinas, FIG. 3. Here is the method:
Healthy Sprague Dawley rats (150-200 g) were used for the trials. Animals were issued from Central Animal House Facility of the College of Pharmacy, King Saud University and were kept in standard plastic animal cages in groups of 6 animals each with 12 hours light and dark cycle at 25±2° C. The rats were fed on standard rat chow and provided water ad libitum. The animals were acclimatized to laboratory conditions for a week prior to experiments. Diabetes was induced in overnight fasted rats by administration of Streptozotocin (STZ) at dose of 55 mg/kg intraperitoneally in citric acid buffer (pH 4.5). After one hour of STZ administration, the animals were allowed to feed ad libitum. […] Relevant biochemical parameters including serum creatinine, uric acid, alanine aminotransferase (ALT), aspartate aminotransferase (AST), alkaline phosphatase and bilirubin were assessed using colorimetric methods. Rat retinas were analyzed for Blood Retinal Barrier (BRB) breakdown after 3 weeks of thymoquinone dosing using fluorescein isothiocyanate (FITC)-conjugated dextran as previously described in the prior art. […] Fluorescence was measured using a Spectra Max Gemini-XPS with excitation and emission wavelengths of 485 nm and 538 nm, respectively, with PBS as a blank. Blood retinal barrier breakdown was calculated using the following equation (1) with the results being expressed in μL g^−1 hr^−1. […]

The mark [8] stands for this setting: diabetic rats treated with TQ 2 mg/kg i.p. on alternate days for three weeks.

`CC1=CC(=O)C(C(C)C)=CC1=O` [thymoquinone, 2-Isopropyl-5-methylbenzo-1,4-quinone]: the “Glucose Concentration” value in assay [1] (after 7 days of TQ treatment) turned out to be 580.58 ± 2.40 mg/dL. The “Glucose Concentration” value in assay [1] (after 14 days of TQ treatment) was 559.55 ± 1.29 mg/dL. For the same compound, the “Glucose Concentration” value in assay [1] (after 21 days of TQ treatment) came out at 495.10 ± 5.71 mg/dL. In addition, the “kidney and liver function tests versus untreated diabetic animals” value in assay [2] (diabetic rats that received thymoquinone) is reported as “more normal”. Further, in assay [2] (setting [8]), the “ALKALINE Phos” value turned out to be 179.08 ± 4.51 U/l, the ALT was determined as 134.43 ± 5.21 U/l, the AST was found to be 138.48 ± 2.94 U/l and the Bilirubin stood at 3.23 ± 0.04 mg/dL. In assay [2] (setting [8]), this compound gave a Creatinine of 0.62 ± 0.05 mg/dL and a Uric acid of 4.99 ± 0.07 mg/dL. Also, the “retinal BDNF expression (diabetes-induced down-regulation of about 65%)” value in assay [3] is given as “normalized”. In assay [4], the “retinal TH levels (diabetes-induced decrease of about 32%)” value is “normalized”. The “retinal NGFR expression (diabetes-induced increase of about 75%)” value in assay [5] was “normalized”. Besides, the “retinal cleaved caspase-3 (diabetes-induced up-regulation of about 52%)” value in the assay on cleaved caspase-3 is on record as “normalized”. Further, the “ROS generation (DCF retinal levels)” value in assay [6] is given as “significantly attenuated”. In addition, the “effect of diabetes on BRB breakdown (retinal vascular permeability)” value in assay [7] was “significantly attenuated”.
